Source: patent US10925967B2, “Degradation of Bruton's tyrosine kinase (BTK) by conjugation of BTK inhibitors with E3 ligase ligand and methods of use” (Dana-Farber Cancer Institute, Inc., priority 2016, dated 2021)

Legend:
BTK [1] = target: T1, BTK (Homo sapiens, UniProt Q06187); assay: K562 cell assay and Western blotting of BTK levels; assay type: cell-based; set-up: endogenous in cells; host or cells: K562 cells; conditions: K562 cells, 200 nM, 1 μM, or 5 μM, 12 hours
Method: K562 cells were treated with DMSO or with 200 nM, 1 μM, or 5 μM of a BTK bifunctional inhibitor compound of the disclosure for 12 hours, followed by protein lysate harvest and Western blotting analysis.
(§1) Cells are lysed using RIPA buffer supplemented with protease inhibitor cocktail (Roche) and phosSTOP phosphatase inhibitor cocktail (Roche) on ice for 15 minutes. The lysates are spun at 20,000×g for 15 minutes on 4° C. and protein concentration is determined using BCA assay (Pierce). The following primary antibodies are used in this study: BTK, GADPH, tubulin and Aurora A kinase (all from Cell Signaling Technology). Blots are imaged using fluorescence-labeled secondary antibodies (LI-COR) on the OdysseyCLxImager (LI-COR). Quantification of band intensities is performed using OdysseyCLx software (LI-COR).

BTK [2] = target: T1, BTK; assay: MOLM14 cell assay and Western blotting of BTK, Aurora A and tubulin levels; assay type: cell-based; set-up: endogenous in cells; conditions: MOLM14 cells, 40 nM, 200 nM, 1 μM, 4 hours
Method: MOLM14 cells were treated with DMSO or with 40 nM, 200 nM, 1 μM of a BTK bifunctional inhibitor compound of the disclosure for 4 hours, followed by protein lysate harvest and Western blotting analysis of BTK, Aurora A, and ca-tubulin levels. […] (FIG. 2)
as §1

T1 sequence (Q06187 whole entry): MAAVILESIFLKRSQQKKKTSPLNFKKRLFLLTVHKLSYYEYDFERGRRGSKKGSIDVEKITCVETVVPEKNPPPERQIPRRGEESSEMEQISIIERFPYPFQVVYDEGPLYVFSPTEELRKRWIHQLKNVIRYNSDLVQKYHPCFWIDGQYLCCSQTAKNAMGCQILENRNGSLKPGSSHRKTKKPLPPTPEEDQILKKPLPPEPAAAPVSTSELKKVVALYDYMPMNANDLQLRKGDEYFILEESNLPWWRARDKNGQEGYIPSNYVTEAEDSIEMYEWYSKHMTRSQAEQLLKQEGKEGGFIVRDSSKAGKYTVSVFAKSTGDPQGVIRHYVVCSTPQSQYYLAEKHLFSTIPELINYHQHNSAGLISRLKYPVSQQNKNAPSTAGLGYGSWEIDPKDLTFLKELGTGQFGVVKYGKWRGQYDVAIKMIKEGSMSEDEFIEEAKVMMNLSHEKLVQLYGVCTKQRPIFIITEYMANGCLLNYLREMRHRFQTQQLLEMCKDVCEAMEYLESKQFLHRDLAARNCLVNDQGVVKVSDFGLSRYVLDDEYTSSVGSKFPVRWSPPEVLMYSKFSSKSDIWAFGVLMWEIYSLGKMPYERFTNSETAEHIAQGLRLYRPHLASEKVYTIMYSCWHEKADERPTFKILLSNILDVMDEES

BTK degradation (Western blot) (BTK [1]) | BTK degradation (Western blot) (BTK [2]) | Structure (SMILES)
showed BTK degradation |  | COc1cc(Nc2c(C#N)cnc3cc(OCCCN4CCN(CCOCCOCCOCCNc5cccc6c5C(=O)N(C5CCC(=O)NC5=O)C6=O)CC4)c(OC)cc23)c(Cl)cc1Cl (stereo not drawn) [Compound I-2]
showed BTK degradation |  | COc1cc(Nc2c(C#N)cnc3cc(OCCCN4CCN(C(=O)CCCNC(=O)COc5cccc6c5C(=O)N(C5CCC(=O)NC5=O)C6=O)CC4)c(OC)cc23)c(Cl)cc1Cl (stereo not drawn) [Compound I-5]
 | showed BTK degradation | COc1cc(Nc2c(C#N)cnc3cc(OCCCN4CCN(CCOCCOCCNc5cccc6c5C(=O)N(C5CCC(=O)NC5=O)C6=O)CC4)c(OC)cc23)c(Cl)cc1Cl (stereo not drawn) [Compound I-3]
